PMC6112376, “Comprehensive Analyses and Prioritization of Tox21 10K Chemicals Affecting Mitochondrial Function by in-Depth Mechanistic Studies” (Environmental Health Perspectives, 2018)
Like-named read-outs stand apart in the source and are kept apart here.

Key:
[1] = system: p53 (p53-bla HCT-116 cells); test: p53 β-lactamase reporter gene assay; type: cell-based, human
HepG2 cells [2] = test: Oxygen consumption, Seahorse XF24 analyzer; type: cell-based, human
rat primary hepatocytes [3] = test: MMP assay in rat primary hepatocytes
HepG2 cells [4] = test: Intracellular ATP content (cell viability) assay; type: cell-based, human
hNSC = test: MMP assay in human neural stem cells (hNSC); type: cell-based
HepG2 cells [5] = system: HepG2 cells
[6] = system: isolated rat liver mitochondria; test: Oxygen consumption, Clark-type oxygen electrode; type: biochemical
[7] = system: Nrf2/ARE (ARE-bla HepG2 cells); test: ARE β-lactamase reporter gene assay; type: cell-based, human
HepG2 cells [8] = details: cited from earlier work
rat primary hepatocytes [9] = system: rat primary hepatocytes
HepG2 cells [10] = test: ROS-Glo hydrogen peroxide (ROS) assay; type: cell-based, human
[11] = system: HeLa cells expressing YFP-Parkin; test: Parkin translocation assay; type: cell-based, human

**Q.** For `CC(C)c1cccc(C(C)C)c1N1C(=O)c2ccc(O)cc2C1=O` [5HPP-33], which EC50 ([1]; 16 h incubation, mean±SD of three experiments) is on record?
**A.** 1.73 ± 0.19 µM

**Q.** And the “p53 (HCT-116) (efficacy)” value ([1]; % of positive control)?
**A.** 76.9±9.78%

**Q.** What about the “Activity in oxygen consumption” value (HepG2 cells [2]) of the same compound?
**A.** Uncoupler+inhibitor

**Q.** And the IC50 (rat primary hepatocytes [3]; read-out: MMP assays IC50 (µM) Rat Hepatocytes)?
**A.** 29.1 ± 12.2 µM

**Q.** What about the IC50 (rat primary hepatocytes [3]; read-out: Rat hepatocytes IC50 (MMP)) of the same compound?
**A.** 38.3 µM

**Q.** What about the “ATP (HepG2, galactose) (efficacy)” value (HepG2 cells [4]) of the same compound?
**A.** 39.7±2.69 ( −66.5±7.10 ) %

**Q.** And the “ATP (HepG2, glucose) (efficacy)” value (HepG2 cells [4])?
**A.** 51.2±14.4 ( −67.7±3.67 ) %

**Q.** What about the IC50 (HepG2 cells [4]; read-out: ATP (HepG2, galactose) IC50) of the same compound?
**A.** 39.7 µM

**Q.** What about the IC50 (HepG2 cells [4]; read-out: ATP (HepG2, glucose) IC50) of the same compound?
**A.** 51.2 µM

**Q.** And the “hNSC (efficacy) (MMP)” value (hNSC)?
**A.** 12.1±1.39 ( −107±4.15 ) %

**Q.** And the IC50 (hNSC; read-out: hNSC IC50 (MMP))?
**A.** 12.1 µM

**Q.** What about the “HepG2 (efficacy) Galactose (MMP)” value (HepG2 cells [5]) of the same compound?
**A.** 29.4±5.02 ( −106±1.68 ) %

**Q.** What about the “HepG2 (efficacy) Glucose (MMP)” value (HepG2 cells [5]) of the same compound?
**A.** 20.1±3.62 ( −100±2.99 ) %

**Q.** And the “MMP assays efficacy (%) HepG2” value (HepG2 cells [5])?
**A.** -96%

**Q.** And the IC50 (HepG2 cells [5]; read-out: HepG2 IC50 Galactose (MMP))?
**A.** 29.4 µM

**Q.** And the IC50 (HepG2 cells [5]; read-out: HepG2 IC50 Glucose (MMP))?
**A.** 20.1 µM

**Q.** What about the IC50 (HepG2 cells [5]; read-out: MMP assays IC50 (µM) HepG2) of the same compound?
**A.** 2.24 µM

**Q.** And the “Potential Mechanism” value [6]?
**A.** Uncoupler at low concentration (20 µM), and uncoupler + inhibitor at high concentration (100 µM)

**Q.** And the “I-ADP, % of control (O2 consumption rate)” value ([6]; 4 µM)?
**A.** 107 (52.5) % of control

**Q.** And the “I-sub, % of control (O2 consumption rate)” value ([6]; 4 µM)?
**A.** 123 (19.8) % of control

**Q.** What about the “II-ADP, % of control (O2 consumption rate)” value (from here on “II-ADP, % of control”) ([6]; 4 µM) of the same compound?
**A.** 89 (69.2) % of control

**Q.** What about the “II-sub, % of control (O2 consumption rate)” value (“II-sub, % of control” for short) ([6]; 4 µM) of the same compound?
**A.** 97 (29.6) % of control

**Q.** What about the “I-ADP, % of control (O2 consumption rate)” value ([6]; 20 µM) of the same compound?
**A.** 122 (60.3) % of control

**Q.** And the “I-sub, % of control (O2 consumption rate)” value ([6]; 20 µM)?
**A.** 296 (47.6) % of control

**Q.** What about the “II-ADP, % of control” value ([6]; 20 µM) of the same compound?
**A.** 95 (73.6) % of control

**Q.** What about the “II-sub, % of control” value ([6]; 20 µM) of the same compound?
**A.** 166 (50.8) % of control

**Q.** And the “I-ADP, % of control (O2 consumption rate)” value ([6]; 100 µM)?
**A.** 77 (41.0) % of control

**Q.** And the “I-sub, % of control (O2 consumption rate)” value ([6]; 100 µM)?
**A.** 331 (44.5) % of control

**Q.** And the “II-ADP, % of control” value ([6]; 100 µM)?
**A.** 51 (34.2) % of control

**Q.** And the “II-sub, % of control” value ([6]; 100 µM)?
**A.** 200 (43.4) % of control

**Q.** And the EC50 ([7]; 16 h incubation, mean±SD of three experiments, read-out: ARE (HepG2) EC50)?
**A.** 25.3 ± 1.74 µM

**Q.** And the “ARE (HepG2) (efficacy)” value ([7]; % of positive control)?
**A.** 54.9±7.97%

**Q.** What about the “MMP assays efficacy (%) qHTS-HepG2” value (HepG2 cells [8]) of the same compound?
**A.** -97±0%

**Q.** And the IC50 (HepG2 cells [8]; read-out: MMP assays IC50 (µM) qHTS-HepG2)?
**A.** 2.09 ± 0.87 µM

**Q.** And the “Rat hepatocytes (efficacy) (MMP)” value (rat primary hepatocytes [9])?
**A.** 38.3±4.41 ( −99.8±6.08 ) %

**Q.** What about the “ROS (HepG2) (efficacy)” value (HepG2 cells [10]) of the same compound?
**A.** 37.1±2.42 ( 37.6±1.63 ) %

**Q.** And the EC50 (HepG2 cells [10]; read-out: ROS (HepG2) EC50)?
**A.** 37.1 µM

**Q.** And the Parkin recruitment [11]?
**A.** Active
